# Assay results reported in the supplement of paper PMC10733146.
# Columns and labels:
# Assay in all cases: viability relative to DMSO control (fraction); higher = less drug effect (more viable cells)
# Conditions in all cases: 48 h
# Navitoclax = compound: CC1(C)CCC(c2ccc(Cl)cc2)=C(CN2CCN(c3ccc(C(=O)NS(=O)(=O)c4ccc(N[C@H](CCN5CCOCC5)CSc5ccccc5)c(S(=O)(=O)C(F)(F)F)c4)cc3)CC2)C1 [Navitoclax]
# Outline: (§1)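 Viability is given as CellTiter-Glo luminescence relative to the median of 16 inner DMSO wells. Fresh or cryopreserved primary mononuclear tumour cells from blood, bone marrow (both Ficoll-isolated) or processed lymph node were plated at 4 × 10^4 cells per well in 384-well plates against five pre-plated compound concentrations, one well each. Incubation lasted 48 h at 37 °C and 5% CO2 in RPMI-1640 with penicillin/streptomycin, L-glutamine and human serum.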
# I-BET-762 = compound: CCNC(=O)C[C@@H]1N=C(c2ccc(Cl)cc2)c2cc(OC)ccc2-n2c(C)nnc21 [I-BET-762]
# Outline: as §1
# CPI-169 = compound: CCS(=O)(=O)N1CCC([C@@H](C)n2c(C)c(C(=O)NCc3c(OC)cc(C)[nH]c3=O)c3ccccc32)CC1 [CPI-169]
# Outline: as §1
# Roscovitine = compound: CC[C@H](CO)Nc1nc(NCc2ccccc2)c2ncn(C(C)C)c2n1 [Roscovitine]
# Outline: as §1
# Vindesine = compound: CC[C@]1(O)C[C@@H]2CN(CCc3c([nH]c4ccccc34)[C@@](C(=O)OC)(c3cc4c(cc3OC)N(C)[C@H]3[C@@](O)(C(N)=O)[C@H](O)[C@]5(CC)C=CCN6CC[C@]43[C@@H]65)C2)C1 [Vindesine]
# Outline: as §1
# [1] = compound: CCc1ccc(/C=C2/SC(=S)NC2=O)cc1
# Outline: as §1
# Midostaurin hydrate = compound: CO[C@@H]1[C@H](N(C)C(=O)c2ccccc2)C[C@H]2O[C@]1(C)n1c3ccccc3c3c4c(c5c6ccccc6n2c5c31)C(=O)NC4 [Midostaurin hydrate]
# Outline: as §1
# Idasanutlin (RS7388) = compound: COc1cc(C(=O)O)ccc1NC(=O)[C@@H]1N[C@@H](CC(C)(C)C)[C@](C#N)(c2ccc(Cl)cc2F)[C@H]1c1cccc(Cl)c1F [Idasanutlin (RS7388)]
# Outline: as §1
# Tofacitinib = compound: C[C@@H]1CCN(C(=O)CC#N)C[C@@H]1N(C)c1ncnc2[nH]ccc12 [Tofacitinib]
# Outline: as §1
# [2] = compound: C[C@H](NC(=O)CCC(F)(F)F)C(=O)N[C@@H]1C(=O)N(CCO)c2ncccc2-c2ccccc21
# Outline: as §1
# [3] = compound: C[C@H]1C[C@@H](n2c(Nc3ccc(OC(F)(F)F)cc3)nc3cc(CCC(=O)O)ccc32)CC(C)(C)C1
# Outline: as §1
# Bendamustine = compound: Cn1c(CCCC(=O)O)nc2cc(N(CCCl)CCCl)ccc21 [Bendamustine]
# Outline: as §1
# Pomalidomide = compound: Nc1cccc2c1C(=O)N(C1CCC(=O)NC1=O)C2=O [Pomalidomide]
# Outline: as §1
# Selinexor = compound: O=C(/C=C\n1cnc(-c2cc(C(F)(F)F)cc(C(F)(F)F)c2)n1)NNc1cnccn1 [Selinexor]
# Outline: as §1
# [4] = compound: O=C(NO)c1cccc(C(=O)NCCc2ccccc2)c1
# Outline: as §1
test system,measurement,setting,value
primary MCL patient cells (S068),viability,Navitoclax; 0.0032 µM,1.04
same,viability,Navitoclax; 0.016 µM,0.906
same,viability,Navitoclax; 0.08 µM,0.642
same,viability,Navitoclax; 0.4 µM,0.326
same,viability,Navitoclax; 2 µM,0.191
same,viability,I-BET-762; 0.008 µM,0.993
same,viability,I-BET-762; 0.04 µM,0.932
same,viability,I-BET-762; 0.2 µM,0.69
same,viability,I-BET-762; 1 µM,0.341
same,viability,I-BET-762; 5 µM,0.218
same,viability,CPI-169; 0.024 µM,0.823
same,viability,CPI-169; 0.12 µM,0.922
same,viability,CPI-169; 0.6 µM,0.869
same,viability,CPI-169; 3 µM,0.937
same,viability,CPI-169; 15 µM,0.889
same,viability,Roscovitine; 0.032 µM,0.834
same,viability,Roscovitine; 0.16 µM,0.913
same,viability,Roscovitine; 0.8 µM,0.772
same,viability,Roscovitine; 4 µM,0.717
same,viability,Roscovitine; 20 µM,0.351
same,viability,Vindesine; 0.016 µM,0.511
same,viability,Vindesine; 0.08 µM,0.439
same,viability,Vindesine; 0.4 µM,0.43
same,viability,Vindesine; 2 µM,0.322
same,viability,Vindesine; 10 µM,0.269
same,viability,[1]; 0.024 µM,0.624
same,viability,[1]; 0.12 µM,0.721
same,viability,[1]; 0.6 µM,0.737
same,viability,[1]; 3 µM,0.806
same,viability,[1]; 15 µM,0.791
same,viability,Midostaurin hydrate; 0.024 µM,0.901
same,viability,Midostaurin hydrate; 0.12 µM,0.855
same,viability,Midostaurin hydrate; 0.6 µM,0.699
same,viability,Midostaurin hydrate; 3 µM,0.431
same,viability,Midostaurin hydrate; 15 µM,0.24
same,viability,Idasanutlin (RS7388); 0.032 µM,0.916
same,viability,Idasanutlin (RS7388); 0.16 µM,0.998
same,viability,Idasanutlin (RS7388); 0.8 µM,0.916
same,viability,Idasanutlin (RS7388); 4 µM,0.74
same,viability,Idasanutlin (RS7388); 20 µM,0.646
same,viability,Tofacitinib; 0.024 µM,0.953
same,viability,Tofacitinib; 0.12 µM,0.948
same,viability,Tofacitinib; 0.6 µM,0.896
same,viability,Tofacitinib; 3 µM,0.884
same,viability,Tofacitinib; 15 µM,0.757
same,viability,[2]; 0.016 µM,1.29
same,viability,[2]; 0.08 µM,1.33
same,viability,[2]; 0.4 µM,1.24
same,viability,[2]; 2 µM,1.33
same,viability,[2]; 10 µM,1.3
same,viability,[3]; 0.024 µM,0.917
same,viability,[3]; 0.12 µM,0.852
same,viability,[3]; 0.6 µM,0.72
same,viability,[3]; 3 µM,0.859
same,viability,[3]; 15 µM,0.843
same,viability,Bendamustine; 0.032 µM,0.962
same,viability,Bendamustine; 0.16 µM,0.942
same,viability,Bendamustine; 0.8 µM,0.956
same,viability,Bendamustine; 4 µM,0.926
same,viability,Bendamustine; 20 µM,0.656
same,viability,Pomalidomide; 0.0032 µM,0.909
same,viability,Pomalidomide; 0.016 µM,0.93
same,viability,Pomalidomide; 0.08 µM,0.98
same,viability,Pomalidomide; 0.4 µM,0.929
same,viability,Pomalidomide; 2 µM,0.767
same,viability,Selinexor; 0.008 µM,0.862
same,viability,Selinexor; 0.04 µM,0.947
same,viability,Selinexor; 0.2 µM,1.31
same,viability,Selinexor; 1 µM,1.01
same,viability,Selinexor; 5 µM,1.12
same,viability,[4]; 0.024 µM,0.903
same,viability,[4]; 0.12 µM,0.889
same,viability,[4]; 0.6 µM,0.885
same,viability,[4]; 3 µM,0.965
same,viability,[4]; 15 µM,0.891
primary T-PLL patient cells (S008),viability,Navitoclax; 0.0032 µM,1.01
same,viability,Navitoclax; 0.016 µM,1.04
same,viability,Navitoclax; 0.08 µM,0.648
same,viability,Navitoclax; 0.4 µM,0.115
same,viability,Navitoclax; 2 µM,0.0601
same,viability,I-BET-762; 0.008 µM,1.03
same,viability,I-BET-762; 0.04 µM,1.03
same,viability,I-BET-762; 0.2 µM,1.05
same,viability,I-BET-762; 1 µM,1.03
same,viability,I-BET-762; 5 µM,0.988
same,viability,CPI-169; 0.024 µM,1
same,viability,CPI-169; 0.12 µM,0.999
same,viability,CPI-169; 0.6 µM,1.03
same,viability,CPI-169; 3 µM,1.02
same,viability,CPI-169; 15 µM,1.05
same,viability,Roscovitine; 0.032 µM,0.978
same,viability,Roscovitine; 0.16 µM,1.06
same,viability,Roscovitine; 0.8 µM,0.972
same,viability,Roscovitine; 4 µM,1.05
same,viability,Roscovitine; 20 µM,0.949
same,viability,Vindesine; 0.016 µM,0.631
same,viability,Vindesine; 0.08 µM,0.332
same,viability,Vindesine; 0.4 µM,0.276
same,viability,Vindesine; 2 µM,0.22
same,viability,Vindesine; 10 µM,0.118
same,viability,[1]; 0.024 µM,0.995
same,viability,[1]; 0.12 µM,0.946
same,viability,[1]; 0.6 µM,1.12
same,viability,[1]; 3 µM,0.984
same,viability,[1]; 15 µM,0.984
same,viability,Midostaurin hydrate; 0.024 µM,1.01
same,viability,Midostaurin hydrate; 0.12 µM,0.968
same,viability,Midostaurin hydrate; 0.6 µM,1.01
same,viability,Midostaurin hydrate; 3 µM,1.04
same,viability,Midostaurin hydrate; 15 µM,0.958
same,viability,Idasanutlin (RS7388); 0.032 µM,0.876
same,viability,Idasanutlin (RS7388); 0.16 µM,0.888
same,viability,Idasanutlin (RS7388); 0.8 µM,0.656
same,viability,Idasanutlin (RS7388); 4 µM,0.325
same,viability,Idasanutlin (RS7388); 20 µM,0.125
same,viability,Tofacitinib; 0.024 µM,0.919
same,viability,Tofacitinib; 0.12 µM,0.906
same,viability,Tofacitinib; 0.6 µM,0.922
same,viability,Tofacitinib; 3 µM,0.913
same,viability,Tofacitinib; 15 µM,0.927
same,viability,[2]; 0.016 µM,1.04
same,viability,[2]; 0.08 µM,1.02
same,viability,[2]; 0.4 µM,0.977
same,viability,[2]; 2 µM,0.968
same,viability,[2]; 10 µM,0.928
same,viability,[3]; 0.024 µM,0.96
same,viability,[3]; 0.12 µM,1.03
same,viability,[3]; 0.6 µM,1.04
same,viability,[3]; 3 µM,0.96
same,viability,[3]; 15 µM,0.983
same,viability,Bendamustine; 0.032 µM,1.05
same,viability,Bendamustine; 0.16 µM,1.09
same,viability,Bendamustine; 0.8 µM,0.992
same,viability,Bendamustine; 4 µM,0.983
same,viability,Bendamustine; 20 µM,0.977
same,viability,Pomalidomide; 0.0032 µM,0.949
same,viability,Pomalidomide; 0.016 µM,1.07
same,viability,Pomalidomide; 0.08 µM,1.03
same,viability,Pomalidomide; 0.4 µM,0.91
same,viability,Pomalidomide; 2 µM,0.944
same,viability,Selinexor; 0.008 µM,1.03
same,viability,Selinexor; 0.04 µM,0.983
same,viability,Selinexor; 0.2 µM,0.879
same,viability,Selinexor; 1 µM,0.693
same,viability,Selinexor; 5 µM,0.58
same,viability,[4]; 0.024 µM,1.07
same,viability,[4]; 0.12 µM,1.03
same,viability,[4]; 0.6 µM,1.03
same,viability,[4]; 3 µM,1.07
same,viability,[4]; 15 µM,1.06
